What all share (experiment): NCI-60 cell line screen, 48 h
In experiment [1] the test system is SR leukemia.
Experiment [2] relates to COLO 205 colon.
For experiment [3], the system named is HCC-2998 colon.
The subject of experiment [4] is HCT-116 colon.
Experiment [5] has as its system 786-0 renal.
Experiment [6] deals with NCI-H460 lung.
Experiment [7] concerns A549 NSCLC.
Experiment [8] relates to EKVX NSCLC.
In experiment [9] the test system is U251 CNS.
For experiment [10], the system named is SNB-75 CNS.

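In this assay, cells in 96-well plates receive the compound at five concentrations for 48 hours. Endpoints are linearly interpolated between the surrounding concentrations. GI50 is the concentration that inhibits growth by half. TGI: concentration producing complete growth inhibition.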

Consider `Cc1ccc(NC(=O)C(=O)C2C(=O)NC(=O)NC2=O)c(C)c1`, for which the TGI is > 100 µM in experiment [1]; 26.8 µM in experiment [2]; > 100 µM in [3]; > 100 µM in experiment [4]; > 100 µM in [5]; > 100 µM in [6]. Besides, the TGI in experiment [7], in [8], in experiment [9] and in experiment [10] was > 100 µM throughout.

On to `COc1ccc2c(c1)c1ccc3c(c1n2C)C(=O)C=CC3=O`, for which the TGI in experiment [1] came out at 5.59 µM; in experiment [2], 19.8 µM; in [3] it was 34.6 µM; in [4], 14 µM; in experiment [5], 14.7 µM; in experiment [6], 61.2 µM. Moreover, the TGI turned out to be 68.7 µM in [7], 35.7 µM in experiment [8], 36 µM in experiment [9] and 68.9 µM in [10].

`O=C(N/N=C/c1ccc([N+](=O)[O-])cc1)c1ccccc1Nc1ccnc(C(F)(F)F)c1`: the GI50 in experiment [1] was 1.5 µM; in experiment [2], 18.2 µM; in [3], 17.9 µM; in experiment [4], 20 µM; in [5], 32.7 µM; in [6], 21.3 µM. In addition, the GI50 was 15.4 µM in [7], 14.6 µM in experiment [8], 16.6 µM in experiment [9] and 18.2 µM in experiment [10]. Besides, the TGI is 20.2 µM in experiment [1]; 39.8 µM in experiment [2]; 49.5 µM in [3]; 70.2 µM in [4]; > 100 µM in experiment [5]; 52.9 µM in [6]. The TGI in experiment [7] was 66 µM; in experiment [8], 59.5 µM; in experiment [9] it was > 100 µM; in [10], 70.3 µM.

Regarding `COc1ccc(C2=NN(C(C)=O)c3nc4ccccc4nc3O2)cc1`, the TGI is > 100 µM in experiment [1]; > 100 µM in experiment [2]; > 100 µM in [3]; > 100 µM in experiment [4]; 48.7 µM in experiment [5]; > 100 µM in experiment [6]. Further, the TGI in experiment [7] was > 100 µM; in experiment [8], > 100 µM; in experiment [9], 61.8 µM; in experiment [10], 21.7 µM.

On to `NC1=C(O)/C(=N/NS(=O)(=O)c2ccccc2)C(c2ccc3c(c2)OCO3)O1` (stereo not given), for which the TGI in experiment [1], in [2], in experiment [3], in experiment [4], in [5] and in [6] was > 100 µM in each case. Besides, the TGI in [7], in experiment [8], in [9] and in experiment [10] was > 100 µM each time.

On to `N#Cc1ccc2[nH]cc(Cc3c[nH]c4ccc(C#N)cc34)c2c1`, for which the GI50 is 7.99 µM in [1]; 15.8 µM in [2]; 9.77 µM in experiment [3]; 10.9 µM in experiment [4]; 13.4 µM in [5]; 9.16 µM in experiment [6]. Further, the GI50 is 9.73 µM in experiment [7], 14.9 µM in [8], 15.7 µM in experiment [9] and 20.4 µM in experiment [10]. The TGI was 36.7 µM in experiment [1]; > 50 µM in experiment [2]; 18.6 µM in experiment [3]; 28.4 µM in experiment [4]; 38 µM in experiment [5]; 23.5 µM in experiment [6]. The TGI in experiment [7] is 24 µM; in experiment [8], > 50 µM; in experiment [9] it was 48.5 µM; in [10] it was > 50 µM.

The record behind these values is PubChem BioAssay (NCI).
